A short description of data set [1]: collision cross section (TIMS, N2 drift gas) of the primary ion; higher = larger gas-phase ion size.
Data set [2] in a line: reversed-phase LC retention time (C18, 15 min MeOH gradient); higher = more hydrophobic / later elution.
[3] abbreviates: ionization mode: ESI+, ion species: [M+H]+.
[4] abbreviates: ionization mode: ESI-, ion species: [M-H]-.

The results in this text go back to the supplement of paper PMC12613149.

Take `Cc1c(Cl)cccc1Nc1ccccc1C(=O)O` [Tolfenamic acid]: the collision cross section in data set [1] (setting [3]) was found to be 156.85 Å²; in data set [1] (setting [4]), 158.38 Å². The “reversed-phase LC retention time” value in data set [2] (setting [3]) is 16.6 min; in data set [2] (setting [4]), 14.2 min.

In turn, `CC(=O)Nc1ccc(O)cc1` [Acetaminophen] gave a collision cross section in data set [1] (setting [3]) of 130.01 Å². The “reversed-phase LC retention time” value in data set [2] (setting [3]) is 5.38 min.

In data set [1] (setting [3]), `CCN1CCCC1CNC(=O)c1cc(S(=O)(=O)CC)c(N)cc1OC` (centres undefined) [Amisulpride] came in with a collision cross section of 193.4 Å². Moreover, the “reversed-phase LC retention time” value in data set [2] (setting [3]) is 7.75 min.

In turn, `O=[PH]1Oc2ccccc2-c2ccccc21` (centres undefined) [3,4,5,6-Dibenzo-1,2-oxaphosphane-2-oxide] yielded a collision cross section in data set [1] (setting [4]) of 144.27 Å². The “reversed-phase LC retention time” value in data set [2] (setting [4]) amounted to 8.76 min.

On to `CCNC(=O)C(C)Oc1cccc2ccccc12` (centres undefined) [Desethyl-napropamide], for which the collision cross section in data set [1] (setting [3]) amounted to 159.85 Å². Besides, in data set [2] (setting [3]), the “reversed-phase LC retention time” value was found to be 14 min.

Turning to `C[C@]12CC[C@@H]3c4ccc(O)cc4CC[C@H]3[C@@H]1CC[C@@H]2O` [17-beta-Estradiol], the collision cross section in data set [1] (setting [4]) stood at 173.91 Å². Besides, the “reversed-phase LC retention time” value in data set [2] (setting [4]) amounted to 14.5 min.

`CN(C)C(=O)NC1CCCCC1` [3-Cyclohexyl-1,1-dimethylurea] displayed a collision cross section in data set [1] (setting [3]) of 139.49 Å². The “reversed-phase LC retention time” value in data set [2] (setting [3]) turned out to be 10.8 min.

In turn, `CCCCCCCCCCCCCC[N+](C)(C)[O-]` [N,N-Dimethyltetradecylamine-N-oxide] returned a collision cross section in data set [1] (setting [3]) of 184.89 Å². In addition, the “reversed-phase LC retention time” value in data set [2] (setting [3]) came to 16.8 min.

`CCNc1nc(N)nc(Cl)n1` [Atrazine desisopropyl] returned a collision cross section in data set [1] (setting [3]) of 132.48 Å². The “reversed-phase LC retention time” value in data set [2] (setting [3]) turned out to be 8.1 min.

`CCC[C@@H]1C[C@@H](C(=O)N[C@@H]([C@H]2O[C@H](SC)[C@H](O)[C@@H](O)[C@H]2O)[C@@H](C)O)N(C)C1` [Lincomycin]: the collision cross section amounted to 202.11 Å² in data set [1] (setting [3]) and 197.99 Å² in data set [1] (setting [4]). The “reversed-phase LC retention time” value in data set [2] (setting [3]) turned out to be 7.84 min; in data set [2] (setting [4]) it was 13.2 min.

On to `NC(=O)c1c(Cl)c(Cl)cc(C(=O)O)c1Cl`, for which the collision cross section in data set [1] (setting [4]) amounted to 155.56 Å². Besides, the “reversed-phase LC retention time” value in data set [2] (setting [4]) turned out to be 4.88 min.

For the molecule `CCCC1CC(C(=O)NC(C(C)Cl)C2OC(SC)C(O)C(O)C2O)N(C)C1` (centres undefined) [Clindamycin], the collision cross section in data set [1] (setting [3]) amounted to 203.51 Å²; in data set [1] (setting [4]), 200.27 Å². For the same molecule, the figures for the “reversed-phase LC retention time” value in data set [2] (setting [3]) and in data set [2] (setting [4]) were 11.5 min and 16.1 min, respectively.

Take `O=C(O)CCCCCCCCCCC(=O)O` [Dodecanedioic acid]: the collision cross section in data set [1] (setting [3]) worked out at 156.8 Å²; in data set [1] (setting [4]), 153.38 Å². Besides, the “reversed-phase LC retention time” value turned out to be 14.7 min in data set [2] (setting [3]) and 8.22 min in data set [2] (setting [4]).

In the case of `COCCN(C(=O)CS(=O)(=O)O)c1c(C)cccc1C` [Dimethachlor ESA], the collision cross section in data set [1] (setting [3]) is given as 164.03 Å²; in data set [1] (setting [4]) it was 167.03 Å². Moreover, the “reversed-phase LC retention time” value in data set [2] (setting [3]) is 10 min; in data set [2] (setting [4]), 9.95 min.

The molecule `Cc1c(C(C)C)c(=O)n(-c2ccccc2)n1C` [Propyphenazone] had a collision cross section in data set [1] (setting [3]) of 153.65 Å². In data set [2] (setting [3]), the “reversed-phase LC retention time” value is 12.3 min.

As to `CN/C(=N\[N+](=O)[O-])NCc1cnc(Cl)s1` [Clothianidin], the collision cross section was 153.61 Å² in data set [1] (setting [3]) and 150.63 Å² in data set [1] (setting [4]). Also, the “reversed-phase LC retention time” value is 8.59 min in data set [2] (setting [3]) and 8.62 min in data set [2] (setting [4]).

Regarding `C[Si](Cn1cncn1)(c1ccc(F)cc1)c1ccc(F)cc1` [Flusilazole], the collision cross section in data set [1] (setting [3]) was 176.25 Å². In data set [2] (setting [3]), the “reversed-phase LC retention time” value was found to be 15.2 min.

For `C/N=C(/NCC1CCOC1)N[N+](=O)[O-]` (centres undefined) [Dinotefuran], the collision cross section stood at 141.96 Å² in data set [1] (setting [3]) and 146.7 Å² in data set [1] (setting [4]). The “reversed-phase LC retention time” value in data set [2] (setting [3]) came out at 6.27 min; in data set [2] (setting [4]) it was 6.46 min.

With `CCOc1nc2cccc(C(=O)O)c2n1Cc1ccc(-c2ccccc2-c2nnn[nH]2)cc1` [Candesartan], the collision cross section in data set [1] (setting [3]) is 196.78 Å²; in data set [1] (setting [4]), 202.36 Å². Further, the entries for the “reversed-phase LC retention time” value in data set [2] (setting [3]) and in data set [2] (setting [4]) were 13.3 min and 9.52 min, respectively.

Regarding `O=c1cc(-c2ccccc2)oc2cc(O)cc(O)c12` [Chrysin], the collision cross section amounted to 154.65 Å² in data set [1] (setting [3]) and 156.4 Å² in data set [1] (setting [4]). Further, the “reversed-phase LC retention time” value in data set [2] (setting [3]) is 14.1 min; in data set [2] (setting [4]), 12.8 min.

Turning to `CC(C1CC1)C(O)(Cn1cncn1)c1ccc(Cl)cc1` (centres undefined) [Cyproconazole_2], the collision cross section in data set [1] (setting [3]) is 170.04 Å². In addition, the “reversed-phase LC retention time” value in data set [2] (setting [3]) came out at 14.6 min.

Regarding `C[C@H]1[C@H](C)CC[C@]2(C(=O)O)CC[C@]3(C)C(=CC[C@@H]4[C@@]5(C)CC[C@H](O)C(C)(C)[C@@H]5CC[C@]43C)[C@H]12` [Ursolic acid], the figures for the collision cross section in data set [1] (setting [3]) and in data set [1] (setting [4]) were 208.26 Å² and 219.38 Å², respectively. Further, the entries for the “reversed-phase LC retention time” value in data set [2] (setting [3]) and in data set [2] (setting [4]) were 18.4 min and 17.6 min, respectively.

Take `C=C(C)C(=O)NCCCN(C)C` [N-(3-Dimethylamino)propyl)methacrylamide]: in data set [1] (setting [3]), the collision cross section worked out at 136.2 Å². The “reversed-phase LC retention time” value in data set [2] (setting [3]) is 3.22 min.

For the molecule `CC1(C)CCC(Cc2ccc(Cl)cc2)C1(O)Cn1cncn1` (centres undefined) [Metconazole], the collision cross section in data set [1] (setting [3]) worked out at 170.17 Å². In addition, the “reversed-phase LC retention time” value in data set [2] (setting [3]) came out at 15.8 min.

`CC(=O)OCC(=O)[C@@]1(O)CC[C@H]2[C@@H]3CCC4=CC(=O)CC[C@]4(C)[C@H]3[C@@H](O)C[C@@]21C` [Hydrocortisonacetate]: the collision cross section in data set [1] (setting [4]) stood at 198.1 Å². The “reversed-phase LC retention time” value in data set [2] (setting [4]) was 13.7 min.

In data set [1] (setting [3]), `CCCCCCCCCCCCNC` [N-Methyldodecylamine] registered a collision cross section of 167.22 Å². In addition, in data set [2] (setting [3]), the “reversed-phase LC retention time” value turned out to be 15.5 min.

Regarding `COc1cc(C)c(C(=O)c2c(OC)ccc(Br)c2C)c(OC)c1OC` [Metrafenone], the collision cross section in data set [1] (setting [3]) worked out at 184.27 Å². In data set [2] (setting [3]), the “reversed-phase LC retention time” value is 15.9 min.
